{
  "source": "patent US20190248834A1",
  "about": "“ENDOMORPHIN-2, TETRAPEPTIDE DERIVATIVES THEREOF, AND USES THEREOF” (priority 2016, published 2019)",
  "format_in_all_cases": "in vivo, human",
  "key": {"severe migraine": {"test_system": "severe migraine", "assay": "Example 13: analgesic effect on chronic migraine headache, topical", "conditions": "1% (w/v) in WEP442, topical", "from_the_text": "One late afternoon, the subject developed severe pain in those areas, accompanied by feelings of vertigo and nausea. The subject topically applied a composition containing 1% (w/v) N-Ac-Tyr-Pro-Phe-Phe-NH2, (SEQ ID NO: 23) in WEP442 to the entire occipital scalp, including the peri-auricular areas."}, "intense headaches": {"test_system": "intense headaches", "assay": "Example 33: analgesic effect on recurring headaches, topical", "conditions": "0.8% (w/v) in EP73, topical", "protocol": "A subject with intense headaches after several hours of using a computer in their work as a real estate agent, topically applied to the forehead and temporal areas a composition containing 0.8% (w/v) of N-Ac-Tyr-Pro-Phe-Phe-NH2 (SEQ ID NO: 23)0 in EP73, formulated as described in Example 2. […] Such headaches, occurring 1-2 times weekly, were treated in the same manner over a 2 month interval, with headache pain being relieved each time."}, "[1]": {"test_system": "bursitis of the right elbow", "assay": "Example 36: analgesic effect on pain of elbow bursitis, topical", "from_the_text": "A subject had painful bursitis of the right elbow that impaired their performance as a golfer. […] They played golf later the same day and experienced no bursitis pain during the game."}, "knee pain": {"test_system": "knee pain", "assay": "Example 42: analgesic effect on knee pain following twisting of leg, topical", "conditions": "1% (w/v) in WEP442, topical", "from_the_text": "A subject, twisted their left leg during work on building construction, causing substantial pain in the left knee. The pain persisted into the late evening, preventing them from falling asleep."}, "[2]": {"test_system": "disabling pain in hands and fingers after exertion", "assay": "Example 25: analgesic effect on severe muscle soreness, topical", "conditions": "1% (w/v) in WEP442, topical", "from_the_text": "A subject had disabling pain in their hands and fingers the next morning after a day of intense exertion of the hands and fingers from using hand screw drivers over a 12-hour period during a building construction job. The intensity of pain was so great that they were unable to lace up their work boots."}, "[3]": {"test_system": "ordinary type of headache", "assay": "Example 11: analgesic effect on headache, topical", "conditions": "1% (w/v) in EP73, topical", "from_the_text": "A subject, developed an ordinary type of headache in the early afternoon. Such headaches usually would persist for several hours, being relieved incompletely by treatment with oral drugs, such as ibuprofen and/or acetaminophen. In this instance, they topically applied an anhydrous composition containing 1% (w/v) N-Ac-Tyr-Pro-Phe-Phe-NH2(SEQ ID NO: 23) in EP73 to the frontal and temporal areas."}, "pain from MTSS": {"test_system": "pain from MTSS", "assay": "Example 22: analgesic effect on medial tibial stress syndrome, topical", "from_the_text": "A small statured person, caretaker of an over-weight disabled elderly person, every evening suffers pain from MTSS of the left lower leg that is due to repeated use of the left leg to lift their patient throughout the day. Their sleeping has been repeatedly disturbed by the pain. […] They followed this sequence of procedures daily for one week work shift with the same result of rapid absolute relief of pain. During the week of being off from work, the MTSS is absent."}, "[4]": {"test_system": "jammed middle finger, pain and swelling", "assay": "Example 15: analgesic effect on injured fingers, topical", "conditions": "1% (w/v) in WEP442, topical", "from_the_text": "A subject, jammed their middle finger causing severe pain and swelling (inflammation). The subject topically applied a composition containing 1% (w/v) N-Ac-Tyr-Pro-Phe-Phe-NH2 ([…]) in WEP442 to the affected finger."}, "carpal tunnel syndrome": {"test_system": "carpal tunnel syndrome", "assay": "Example 78: analgesic effect on carpal tunnel syndrome, topical", "protocol": "A subject, and a computer operator, presented with symptoms of carpal tunnel syndrome, i.e. wrist pain and tingling sensations of the palm and fingers. […] Relief occurred within 3 minutes of topical application and lasted for 2-4 hours."}, "[5]": {"test_system": "very severe osteoarthritis of the knees", "assay": "Example 45: analgesic effect on osteoarthritic knees, topical lotion", "conditions": "1% (w/w) lotion", "protocol": "One gram of the tetrapeptide derivative N-Pg-Tyr-Pro-Phe-Phe-NH2(SEQ ID NO: 44) was dissolved in propylene glycol (33 ml) and diisopropyl adipate (33 ml), and the resultant solution was mixed with an oil-in-water emulsion (33 g) to yield a light lotion containing 1% (w/w) of […] (SEQ ID NO: 44). This lotion was generously applied topically to the knees and lower legs of a subject, having very severe osteoarthritis of the knees for many years. After topical application of the lotion to the lower legs and knees, plastic film was applied to cover the treated areas. The plastic film was removed 8 hours later. […] Pain began to return after about 4 days."}, "headache": {"test_system": "headache", "assay": "Example 65: analgesic effect on headache, topical", "conditions": "0.6% (w/v) in WEP442, topical", "from_the_text": "Several days after the incident causing the injury, they developed a bothersome headache, concentrated to the temporal areas."}, "[6]": {"test_system": "severe osteoarthritis of both knees", "assay": "Example 17: analgesic effect on osteoarthritic knees, sublingual powder", "conditions": "powder 50 mg under the tongue", "protocol": "A subject had severe osteoarthritis of both knees with pain, inflammation and edema for four years. The subject underwent prior therapy, including intra-articular injections of corticosteroids and hyaluronic acid as well as celecoxib (Celebrex), administered orally (200 mg) twice daily. Such therapy provided only mild transitory relief of knee pain and edema, and edema of the lower legs.\nThe subject administered N-Pg-Tyr-Pro-Phe-Phe-NH2 (SEQ ID NO: 44) powder (50 mg) under the tongue (sublingually), which dissolved in saliva and absorbed slowly for about 30 minutes. […] The analgesic effect lasted for about 2 hours. The analgesic effect was judged to be about 4+ by clinical evaluation.\nUnder the same conditions, N-Pa-Tyr-Pro-Phe-Phe-NH2 (SEQ ID NO: 64) powder provided an analgesic effect of about 3+ as judged by clinical evaluation. Also under the same conditions, N-Ac-Tyr-Pro-Phe-Phe-NH2 (SEQ ID NO: 23) powder provided an analgesic effect of about 3+ as judged by clinical evaluation. Repeated application of the tetrapeptide derivatives provided 4+ efficacy as judged by clinical evaluation."}},
  "note": "Non-standard residues stand in square brackets, D forms with d. pGlu = O=C1CC[C@@H](C(=O)O)N1",
  "data": [
    {"compound": "CC(=O)N[C@@H](Cc1ccc(O)cc1)C(=O)N1CCC[C@H]1C(=O)N[C@@H](Cc1ccccc1)C(=O)N[C@@H](Cc1ccccc1)C(N)=O", "note": "[N-Ac-Tyr-Pro-Phe-Phe-NH2]", "values": [
      {"measurement": "pain relief", "setting": "severe migraine", "result": "all pain and other symptoms disappeared"},
      {"measurement": "recurrence", "setting": "severe migraine", "result": "no recurrence of any migraine headache during the next week"},
      {"measurement": "time to pain relief", "setting": "severe migraine", "result": "≤ 5", "unit": "min"},
      {"measurement": "pain relief", "setting": "intense headaches", "result": "Complete headache relief"},
      {"measurement": "time to pain relief", "setting": "intense headaches", "result": "≤ 1", "unit": "min"},
      {"measurement": "pain relief", "setting": "[1]; 0.8% (w/v) in WEP442, topical", "result": "complete loss of pain"},
      {"measurement": "time to pain relief", "setting": "[1]; 0.8% (w/v) in WEP442, topical", "result": "≤ 2", "unit": "min"},
      {"measurement": "duration of pain relief", "setting": "[1]; 0.8% (w/v) in WEP442, topical in the afternoon", "result": "Pain did not recur until the next morning"},
      {"measurement": "pain relief", "setting": "knee pain", "result": "complete relief of pain"},
      {"measurement": "recurrence", "setting": "knee pain", "result": "pain free the next morning and thereafter"},
      {"measurement": "time to pain relief", "setting": "knee pain", "result": "less than 1 minute"},
      {"measurement": "recurrence", "setting": "[2]", "result": "did not recur at all"},
      {"measurement": "pain relief", "setting": "[2]; hand-wash manner", "result": "instantaneous, complete relief of pain"},
      {"measurement": "duration of headache alleviation", "setting": "[3]", "result": 18, "unit": "h"},
      {"measurement": "pain relief", "setting": "[3]", "result": "headache pain disappeared completely"},
      {"measurement": "time to pain relief", "setting": "[3]", "result": "Within minutes"},
      {"measurement": "pain relief", "setting": "pain from MTSS; 1% (w/v) in WEP442, single topical application", "result": "completely relieved the pain"},
      {"measurement": "duration of pain relief", "setting": "pain from MTSS; 1% (w/v) in WEP442, topical", "result": "No pain occurred until the next evening"},
      {"measurement": "time to pain relief", "setting": "pain from MTSS; 1% (w/v) in WEP442, topical", "result": "≤ 1", "unit": "min"},
      {"measurement": "relief of pain and swelling", "setting": "[4]", "result": "pain and much of the swelling disappeared"},
      {"measurement": "time to relief", "setting": "[4]", "result": "almost immediately"}
    ]},
    {"compound": "N-Pg-Tyr-Pro-Phe-Phe-NH2 ([pGlu]YPFF-NH2; SMILES NC(=O)[C@H](Cc1ccccc1)NC(=O)[C@H](Cc1ccccc1)NC(=O)[C@@H]1CCCN1C(=O)[C@H](Cc1ccc(O)cc1)NC(=O)[C@@H]1CCC(=O)N1)", "values": [
      {"measurement": "duration of relief", "setting": "carpal tunnel syndrome; 0.5% (w/v) in WEP442, topical", "result": "2 to 4", "unit": "h"},
      {"measurement": "time to relief", "setting": "carpal tunnel syndrome; 0.5% (w/v) in WEP442, topical", "result": "≤ 3", "unit": "min"},
      {"measurement": "relief of symptoms", "setting": "carpal tunnel syndrome; 0.5% (w/v) in WEP442, topical several times during working hours", "result": "substantial relief of the symptoms"},
      {"measurement": "time to return of pain", "setting": "[5]", "result": "about 4 days"},
      {"measurement": "pain relief", "setting": "[5]; under plastic film 8 hours, daily for 3 days", "result": "pain had subsided almost completely"},
      {"measurement": "headache relief", "setting": "headache", "result": "almost immediate, complete relief of the headache"},
      {"measurement": "analgesic effect by clinical evaluation", "setting": "[6]", "result": "4+ (4+ (90-100%): complete relief or eradication of pain for more than 4 hours)"},
      {"measurement": "duration of analgesic effect", "setting": "[6]", "result": "about 2 hours"},
      {"measurement": "pain relief", "setting": "[6]", "result": "the pain disappeared"},
      {"measurement": "time to pain relief", "setting": "[6]", "result": "≤ 20", "unit": "min"}
    ]}
  ]
}
